In US20160299149A1, “ASSAYS AND METHODS FOR CELL PROLIFERATION-TARGETED TREATMENT THERAPIES” (University of Central Florida Research Foundation, Inc., priority 2015, published 2016):

Key:
[1] = test system: DFMO-treated cells; assay: Polyamine transport inhibitor assay 2: PTI blocks uptake of rescuing spermidine into DFMO-treated cells; format: cell-based; conditions: DFMO dosed at its IC50; Spd 1 μM; PTI not above its IC10; relative to untreated control
Experimental: (§1) FIG. 6A is a diagram showing an assay wherein the uptake of rescuing dose of spermidine into DFMO-treated cells is blocked by a PTI (GW 5074).
(§2) DFMO was dosed to give 50% relative viability versus an untreated control, i.e. DFMO is dosed at its IC50 value. Exogenous spermidine (Spd, 1 μM) is added to the DFMO treated cells and provided significant rescue of these cells to >80% viability depending upon the cell line. A successful PTI was able to block the entry of the spermidine rescuing agent into DFMO treated cells and result in a cell viability near the DFMO control (i.e. 50% viability). The inventors identified the following cell viabilities: DFMO only (50%), Spd only (100%), PTI (>90%), DFMO+Spd (>80%), DFMO+Spd+PTI (50%). The PTI provides a dose dependent lowering of cell viability in the presence of DFMO and a rescuing dose of spermidine. […] Identifying cells that respond to exogenous spermidine allow this assay to be possible and the c-myc and ATP13A3 biomarkers help predict these outcomes as well as the Vmax measurements for ^3H Spd import.

[2] = test system: L3.6pl cells; assay: Assay 2 with GW5074 PTI in L3.6pl cells; format: cell-based, human; conditions: DFMO alone; 500 cells/well, 48 h at 37° C., 250 μM aminoguanidine
Experimental: as §2

[3] = test system: L3.6pl, Panc1, CHO and PanO2 cells; assay: Cell line sensitivity to DFMO and spermidine rescue challenge; format: cell-based
[4] = test system: L3.6pl cells; assay: DFMO 48 h IC50 in L3.6pl cells; format: cell-based, human
Experimental: FIG. 19B provides a graphical illustration of the effect of scrambled siRNA vs. ATP13A3 siRNA on relative L3.6pl cell viability % when challenged with a 48 h IC50 dose of DFMO (8 mM) and a rescuing dose of Spd (1 μM).
FIG. 20B provides a graphical illustration of the effect of scrambled siRNA vs. ATP13A3 siRNA on relative L3.6pl cell viability % when challenged with a 48 h IC50 dose of DFMO (8 mM) and a rescuing dose of Spd (1 μM).

[5] = test system: BxPC-3 pancreatic cancer cells; assay: Western blot of ATP13A3 and Cav-1 protein levels with DFMO; format: cell-based, human; conditions: 72 h incubation at 37° C.
Experimental: (§3) FIGS. 9A-B provide graphical illustrations of the modulation of ATP13A3 and Cav-1, respectively, by DFMO and DFMO+Spermidine in L3.6pl human pancreatic cancer cells after 72 h incubation at 37° C. In FIG. 9A ATP13A3 protein levels after 72 h incubation at 37° C. are shown in L3.6pl (top) and Bx-PC3 (bottom) pancreatic cancer cells in the presence of DFMO or DFMO+Spd as analyzed by Western blot. Expression was normalized using β-actin levels. […] Note an increase in Cav-1 levels would stabilize caveolae at the cell surface and reduce the uptake of polyamines via a caveolin dependent pathway. A decrease in Cav-1 levels would increase polyamine import.

[6] = test system: L3.6pl pancreatic cancer cells; assay: as above; format: cell-based, human; conditions: 72 h incubation at 37° C.
Experimental: as §3

[7] = test system: PanO2 derived tumors; assay: Histology (Ki67, cleaved caspase) of PanO2 derived tumors; format: in vivo; conditions: PanO2 derived tumors in C57Bl/6 mice
From the text: FIG. 14 illustrates histological stained images of Ki67, a proliferation marker, and cleaved caspase in the presence of DFMO or DFMO+ the trimer44NMe PTI

[8] = Polyamine transport inhibitor assay 2: PTI blocks uptake of rescuing spermidine into DFMO-treated cells; format: cell-based; conditions: DFMO dosed at its IC50; Spd 1 μM; PTI not above its IC10; relative to untreated control; read-out: cell viability
Experimental: as §1, §2

[9] = test system: MALME-3M cells and MALME-3 control cells; assay: Spermidine competition / percent viability with compound A; format: cell-based; conditions: 100 μM; MALME-3M and MALME-3
Experimental: Aminoguanidine (AG) at 1 mM was determined to be non-toxic and was incubated with cells for 24 h prior to compound addition. Control represents the untreated cells. All experiments were performed in triplicate. Spermidine (Spd, 100 μM) was non-toxic to both cell lines. […] Compound A is a valid polyamine transport probe.

[10] = test system: AspC-1; assay: 3H Spd import Vmax, untreated cells; format: cell-based, human
From the text: (§4) FIG. 10 is a table providing the Relative Protein expression of Cav-1, ATP13A3 and c-myc in human pancreatic cancer cell lines along with the respective Vmax values for ^3H spermidine (Spd) import and the relative affinity Km values determined for spermidine. Entries represent 100%×protein expression/beta actin expression as shown in FIG. 10 along with the Vmax value already provided. The Western blots were quantified by Image J software (NIH) and normalized by dividing by the beta-actin expression level for each cell line. Entries represent protein expression and are expressed in relative %, with the L3.6pl cell expression levels set to 100%.
(§5) FIG. 10 provides a table showing the relative protein expression of Cav-1, ATP13A3 and c-myc in human pancreatic cancer cell lines (normalized by dividing by the relative beta actin expression level) along with the respective Vmax values for ^3H Spd import and Km values. The entries represent 100%×protein expression/beta actin expression is shown in the table along with the Vmax and Km values reported earlier. As mentioned earlier, a strong correlation was found between ATP13A3 expression and the ability of DFMO-treated cells to be rescued by exogenous spermidine (FIG. 8, rightmost column).

[11] = test system: BxPC-3; assay: 3H Spd import Vmax, untreated cells; format: cell-based, human
From the text: as §4, §5

[12] = test system: Capan-1; assay: 3H Spd import Vmax, untreated cells; format: cell-based, human
From the text: as §4, §5

[13] = test system: HPNE; assay: 3H Spd import Vmax, untreated cells; format: cell-based, human
From the text: as §4, §5

[14] = test system: L3.6pl; assay: 3H Spd import Vmax, untreated cells; format: cell-based, human
From the text: as §4, §5

[15] = test system: Panc-1; assay: 3H Spd import Vmax, untreated cells; format: cell-based, human
From the text: as §4, §5

[16] = test system: SU86.86; assay: 3H Spd import Vmax, untreated cells; format: cell-based, human
From the text: as §4, §5

[17] = test system: AspC-1; assay: Spermidine rescue of DFMO-treated cells; format: cell-based, human; conditions: DFMO-treated AspC-1 cells
Experimental: (§6) FIG. 8 provides an illustration and a table showing different cell line sensitivity to DFMO and spermidine rescue challenge. The rescue challenge experiment doses cells with the respective IC50 dose of DFMO for that cell line and measures the viability of cells with and without added spermidine (1 μM). Cell lines without added spermidine give the expected 50% viability due to the presence of DFMO. […] These are highlighted in red. Cell lines with low polyamine transport activity are not rescued to a significant extent even though a rescuing dose of spermidine is available and give viabilities near 50%.
as §2

[18] = test system: BxPC-3; assay: Spermidine rescue of DFMO-treated cells; format: cell-based, human; conditions: DFMO-treated BxPC-3 cells
Experimental: as §6, §2

[19] = test system: Capan-1; assay: Spermidine rescue of DFMO-treated cells; format: cell-based, human; conditions: DFMO-treated Capan-1 cells
Experimental: as §6, §2

[20] = test system: HPNE; assay: Spermidine rescue of DFMO-treated cells; format: cell-based, human
Experimental: as §6, §2

[21] = test system: L3.6pl; assay: Spermidine rescue of DFMO-treated cells; format: cell-based, human; conditions: DFMO-treated L3.6pl cells
Experimental: as §6, §2

[22] = test system: Panc-1; assay: Spermidine rescue of DFMO-treated cells; format: cell-based, human; conditions: DFMO-treated Panc-1 cells
Experimental: as §6, §2

[23] = test system: SU86.86; assay: Spermidine rescue of DFMO-treated cells; format: cell-based, human; conditions: DFMO-treated SU86.86 cells
Experimental: as §6, §2

difluoromethylornithine [DFMO]
cell viability [1]: 50%
effectiveness against L3.6pl cells [2]: effective
IC50 [3]: < 5 mM
IC50 [4]: 8 mM
relative ATP13A3 expression (normalized using β-actin) ([5]; Bx-PC3, 48 h IC50 DFMO dose (e.g., 8 mM)): significant increase
levels of Cav-1 ([5]; BxPC-3, in the presence of DFMO): not dramatically changed
relative ATP13A3 expression (normalized using β-actin) ([6]; 48 h IC50 DFMO dose (e.g., 8 mM)): significant increase
levels of Cav-1 ([6]; in the presence of DFMO): not dramatically changed
proliferation (Ki67 histological stain) [7]: reduced proliferation

NCCCCNCCCN [Spermidine, spermidine]
viability at 1 μM [8]: 100%
viability at 1 μM ([3]; cells dosed with IC50 dose of DFMO, spermidine 1 μM, read-out: viability level after rescue by exogenous spermidine): > 80%
toxicity to both cell lines [9]: non-toxic
Vmax of ^3H Spd untreated cells [10]: 2.3 nmoles Spd/mg protein/min
Vmax of ^3H Spd untreated cells [11]: 9.0 nmoles Spd/mg protein/min
Vmax of ^3H Spd untreated cells [12]: 0.8 nmoles Spd/mg protein/min
Vmax of ^3H Spd untreated cells [13]: 1.8 nmoles Spd/mg protein/min
Vmax of ^3H Spd untreated cells [14]: 24 nmoles Spd/mg protein/min
Vmax of ^3H Spd untreated cells [15]: 13 nmoles Spd/mg protein/min
Vmax of ^3H Spd untreated cells [16]: 7.0 nmoles Spd/mg protein/min
Spd rescue index [17]: Not rescuable
Spd rescue index [18]: low
Spd rescue index [19]: Not rescuable
Spd rescue index [20]: very low
Spd rescue index [21]: high
Spd rescue index [22]: med
Spd rescue index [23]: med
